Experimental data taken from patent US20120058961A1, “Pharmaceutical Composition for Treating Cancers” (HENKAN PHARMACEUTICAL CO., LTD., priority 2010, published 2012).

System: Human prostatic carcinoma PC-3 cells
Experiment: Apoptosis assay (cell death detection ELISA, nucleosome level) in PC-3 cells
Type: cell-based
Protocol: Human prostatic carcinoma PC-3 cells (ATCC, CRL-1435, USA) were used for apoptosis assay. The apoptosis test was conducted following the method as described by Guseva et al. […] The cell death of each test was detected by ELISA following the method as provided by Holdenrieder et al. (Holdenrieder et al., Quantification of nucleosomes in serum by the cell death detection ELISA^plus. Roche Applied Science Biochemica. 1: 25-27, 2002). The cells were collected after incubation, and then lysed and evaluated for nucleosome levels by ELISA kit (Cell Death Detection ELISA^PLUS Kit, Roche, 1774425). The read absorbance at 405 nm was measured for each test compound or a vehicle and the values of apoptosis % were calculated. […] Assay Reference FasL (3 nM) was added to the control wells (named as Total wells) and the Incubation buffer to the Blank wells. HK-06-[…] at a concentration of 8 μM or 3 μM was added to each well, and the plate was then incubated in Antagonist buffer for 16 hours at 37° C., 5% CO2. The nucleosome level of each well was determined by the cell death detection kit. […] The plate was then incubated in Agonist buffer for 16 hours at 37° C., 5% CO2. The nucleosome level of each well was determined by the cell death detection kit. In the assays for SAHA and HK-06-[…], SAHA at a concentration of 0.1 μM, 1 μM, 10 μM, 100 μM or 300 μM was replaced for the NaB. The HK-06-[…] at a concentration of 4.5 μM was used. Results are expressed as a percentage of the group treated with the test compound as compared to that of the control group.

Compound	means of Apoptosis % (8 uM HK-06-D01 only (FIG. 1B)) [%]	means of Apoptosis % (8 uM HK-06-D01 only as printed (FIG. 1C)) [%]	means of Apoptosis % (8 uM HK-06-D01 only, 16 hours, relative to 3 nM Fas Ligand = 100% (FIG. 1A)) [%]	means of Apoptosis % (0.3 mM NaB only (FIG. 1B)) [%]	means of Apoptosis % (0.3 mM NaB only as printed (FIG. 1C)) [%]	means of Apoptosis % (1 mM NaB only, 16 hours, relative to 3 nM Fas Ligand = 100% (FIG. 1A)) [%]
C[C@H](CCC1(O)O[C@H]2C[C@H]3[C@@H]4CC=C5C[C@@H](O[C@@H]6O[C@H](CO)[C@@H](O[C@@H]7O[C@@H](C)[C@H](O[C@@H]8O[C@@H](C)[C@H](O)[C@@H](O)[C@H]8O)[C@@H](O)[C@H]7O)[C@H](O)[C@H]6O[C@@H]6O[C@@H](C)[C@H](O)[C@@H](O)[C@H]6O)CC[C@]5(C)[C@H]4CC[C@]3(C)[C@H]2[C@@H]1C)CO[C@@H]1O[C@H](CO)[C@@H](O)[C@H](O)[C@H]1O (stereo partly drawn) [HK-06-D01, (25R)-26-O-beta-D-glucopyranosyl-22-hydroxy-5-ene-furostan-3beta, 26-diol-3-O-alpha-L-rhamnopyranosyl-(1→4)-alpha-L-rhamnopyranosyl-(1→4)-[alpha-L-rhamnopyranosyl-(1→2)]-beta-D-glucopyranoside]	51	5	46.67	–	–	–
CCCC(=O)[O-].[Na+] [NaB, sodium butyrate]	–	–	–	4	3	29.67
